Columns and labels:
[1] = target: T1, ArnC (Sulfolobus acidocaldarius, UniProt Q4J9J0); experiment: in vitro phosphorylation, autophosphorylation; format: biochemical; conditions: 1 mM MnCl2, pH 8, 55°C; labelled compound
T1 construct: gene Saci_1193; purified kinase; expression in E. coli Rosetta (DE3)/pLysS, construct details in earlier work
T1 sequence (Q4J9J0 1-663): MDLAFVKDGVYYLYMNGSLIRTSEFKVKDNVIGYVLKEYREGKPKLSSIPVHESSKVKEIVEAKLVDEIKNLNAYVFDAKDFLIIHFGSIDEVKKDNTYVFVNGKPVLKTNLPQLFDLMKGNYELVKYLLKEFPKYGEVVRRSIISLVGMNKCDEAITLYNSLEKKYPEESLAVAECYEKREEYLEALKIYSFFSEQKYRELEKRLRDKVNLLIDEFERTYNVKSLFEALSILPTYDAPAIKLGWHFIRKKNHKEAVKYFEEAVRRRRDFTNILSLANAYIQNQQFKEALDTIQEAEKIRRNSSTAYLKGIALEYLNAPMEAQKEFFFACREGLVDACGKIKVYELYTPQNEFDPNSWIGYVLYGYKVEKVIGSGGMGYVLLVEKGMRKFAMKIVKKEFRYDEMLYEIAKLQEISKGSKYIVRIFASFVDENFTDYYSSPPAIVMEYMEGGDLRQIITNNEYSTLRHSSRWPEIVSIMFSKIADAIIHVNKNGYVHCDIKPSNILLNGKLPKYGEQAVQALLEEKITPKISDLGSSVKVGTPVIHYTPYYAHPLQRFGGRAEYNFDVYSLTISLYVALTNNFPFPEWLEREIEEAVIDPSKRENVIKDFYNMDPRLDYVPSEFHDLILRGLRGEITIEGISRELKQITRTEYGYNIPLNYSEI

[2] = target: T2, SaUspA (Sulfolobus acidocaldarius, UniProt Q4JAC8); experiment: Ni-NTA co-purification with PP2A-his, Western blot; conditions: 1 mM ATP, 5 mM MgCl2, pH 8; ATP increases binding to PP2A
T2 construct: gene Saci_0887
T2 sequence (Q4JAC8 1-128): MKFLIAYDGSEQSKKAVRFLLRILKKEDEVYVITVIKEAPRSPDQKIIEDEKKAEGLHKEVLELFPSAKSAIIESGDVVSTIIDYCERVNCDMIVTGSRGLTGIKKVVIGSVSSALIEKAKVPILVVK

[3] = target: T3, ArnD (Sulfolobus acidocaldarius, UniProt Q4J879); experiment: in vitro phosphorylation, autophosphorylation; format: biochemical; conditions: 1 mM MnCl2, pH 8, 55°C; labelled compound
T3 construct: gene Saci_1694; purified kinase; expression in E. coli Rosetta (DE3)/pLysS, construct details in earlier work
T3 sequence (Q4J879 1-413): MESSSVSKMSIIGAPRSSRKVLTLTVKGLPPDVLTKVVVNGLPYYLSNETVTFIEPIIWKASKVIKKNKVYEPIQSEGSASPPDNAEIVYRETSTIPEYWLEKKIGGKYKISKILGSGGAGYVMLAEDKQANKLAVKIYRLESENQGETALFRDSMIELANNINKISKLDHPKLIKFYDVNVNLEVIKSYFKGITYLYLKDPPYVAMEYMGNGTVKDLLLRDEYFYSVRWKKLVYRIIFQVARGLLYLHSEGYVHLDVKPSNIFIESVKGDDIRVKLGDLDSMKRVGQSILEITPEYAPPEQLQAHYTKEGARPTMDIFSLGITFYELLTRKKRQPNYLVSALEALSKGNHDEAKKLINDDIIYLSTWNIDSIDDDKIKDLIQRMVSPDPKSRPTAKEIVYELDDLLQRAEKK

[4] = target: the molecule itself; experiment: SEC; purified Strep II-tagged SaUspA on a Superdex 200 10/300 GL column in lysis buffer (50 mM Tris pH8, 150 mM NaCl); standards of 158, 44, 17 and 1.35 kDa; peak at about 30 kDa against 16.2 kDa for the monomer

Molecule: Nc1ncnc2c1ncn2[C@@H]1O[C@H](COP(=O)(O)OP(=O)(O)OP(=O)(O)O)[C@@H](O)[C@H]1O [ATP]
- in vitro phosphorylation, autophosphorylation [1]: autophosphorylation was detected for both ArnC and ArnD
- Ni-NTA co-purification with PP2A-his, Western blot [2]: This indicated that ATP-binding of SaUspA enhanced its interaction with PP2A
- in vitro phosphorylation, autophosphorylation [3]: autophosphorylation was detected for both ArnC and ArnD

B1: C-terminally StrepII-tagged SaUspA (universal stress protein UspA of Sulfolobus acidocaldarius, Saci_0887) (natural protein, UniProt Q4JAC8 1-128, looked up)
chain: T2 sequence (Q4JAC8 1-128)
notes: SaUspA (UspA, Saci_0887), universal stress protein of Sulfolobus acidocaldarius; printed molecular weight 16.2 kDa; Made nucleotide free by ammonium sulfate precipitation; in some samples pre-incubated with 1 mM ATP and 5 mM MgCl2; also called SaUspA-Strep; SaUspA^WT; not shown: StrepII, C-terminal, kept
- stoichiometry N [4]: 2
